Laboratory results published in publication PMC6332424, “Synthesis and Evaluation of New Pyrazoline Derivatives as Potential Anticancer Agents” (Molecules, 2015).
Entries after “also recorded” stand apart in the source; their conditions may differ.

Assays:
[1] = tested on: U87 human glioblastoma cell line; assay: MTT assay for cytotoxicity, U87 cells; format: cell-based; conditions: for IC50: MTT, 24 h incubation
Method: (§1) U251 and U87 human glioblastoma cells were incubated in Dulbecco’s-modified Eagle’s medium (DMEM) (Wako Pure Chemical Industries, Osaka, Japan) supplemented with 10% fetal bovine serum (FBS) (Equitech-Bio, Kerrville, TX, USA). AsPC-1 human pancreas adenocarcinoma and Jurkat human leukemic T-cells were incubated RPMI 1640 (Wako Pure Chemical Industries), supplemented with 10% FBS. Peripheral blood mononuclear cells (PBMC) (Precision Bioservices, Frederick, MD, USA) were incubated RPMI 1640 and supplemented with 10% human serum AB (HS) (Gemini, Woodland, CA, USA). All media were supplemented with 89 µg/mL streptomycin (Meiji Seika Pharma, Tokyo, Japan) and cells were incubated at 37 °C in a humidified atmosphere of 95% air and 5% CO2. Growing cells were plated at 1 × 10^5 cells/mL into 24-well microtiter tissue culture plates (Iwaki brand Asahi Glass Co., Chiba, Japan) and incubated for 24 h before the addition of the drugs (the optimal cell number for cytotoxicity assays was determined in preliminary experiments). Stock solutions (1 mM, 5 mM, 10 mM, 20 mM, and 50 mM) of compounds and cisplatin (Sigma-Aldrich, St. Louis, MO, USA) were prepared in dimethyl sulfoxide (DMSO; Wako Pure Chemical Industries) and in dimethylformamide (DMF; Wako Pure Chemical Industries) respectively, then were added to fresh culture medium. The concentration of DMSO and DMF in the final culture medium was 1%. The level of cellular reduction of 3-(4,5-dimethylthiazol-2-yl)-2,5-diphenyltetrazolium bromide (MTT) (Dojindo Molecular Technologies, Kumamoto, Japan) was quantified as previously described in the literature with small modifications. The tested compounds were incubated with cells to give a final concentration in the range 50–500 µM for 24 h. At the end of this period, MTT was added to cells in culture to give a final concentration of 0.275 mg/mL and incubated further for 4 h at 37 °C. The medium was removed and the formazan crystals were solubilized by addition of 100 µL DMSO to each well. After the solubilized crystals were diluted (1:10) with DMSO, 100 µL was transferred to wells of 96-well microtiter plates (Iwaki brand Asahi Glass Co.) and the absorbance at 550 nm was measured using a microplate spectrophotometer Infinitive M1000 (Tecan, Groding, Austria). Every concentration was repeated in three wells and IC50 values were defined as the drug concentrations which reduced absorbance to 50 % of control values.

[2] = tested on: U251 human glioblastoma cell line; assay: MTT assay for cytotoxicity, U251 cells; format: cell-based; conditions: 24 h incubation
Method: as §1

[3] = tested on: AsPC-1 human pancreatic adenocarcinoma cell line; assay: MTT assay for cytotoxicity, AsPC-1 cells; format: cell-based; conditions: 24 h incubation, read-out: IC50 AsPC1 Cell Line
Method: as §1

[4] = tested on: peripheral blood mononuclear cells (PBMC); assay: MTT cell viability, PBMC (tumor selectivity); format: cell-based, human; conditions: Figure 3b, read-out: IC50 against PBMC
Method: (§2) U251 and U87 human glioblastoma cells were incubated in Dulbecco’s-modified Eagle’s medium (DMEM) (Wako Pure Chemical Industries, Osaka, Japan) supplemented with 10% fetal bovine serum (FBS) (Equitech-Bio, Kerrville, TX, USA). AsPC-1 human pancreas adenocarcinoma and Jurkat human leukemic T-cells were incubated RPMI 1640 (Wako Pure Chemical Industries), supplemented with 10% FBS. Peripheral blood mononuclear cells (PBMC) (Precision Bioservices, Frederick, MD, USA) were incubated RPMI 1640 and supplemented with 10% human serum AB (HS) (Gemini, Woodland, CA, USA). […] Growing cells were plated at 1 × 10^5 cells/mL into 24-well microtiter tissue culture plates (Iwaki brand Asahi Glass Co., Chiba, Japan) and incubated for 24 h before the addition of the drugs (the optimal cell number for cytotoxicity assays was determined in preliminary experiments). […] The level of cellular reduction of 3-(4,5-dimethylthiazol-2-yl)-2,5-diphenyltetrazolium bromide (MTT) (Dojindo Molecular Technologies, Kumamoto, Japan) was quantified as previously described in the literature with small modifications. […] After the solubilized crystals were diluted (1:10) with DMSO, 100 µL was transferred to wells of 96-well microtiter plates (Iwaki brand Asahi Glass Co.) and the absorbance at 550 nm was measured using a microplate spectrophotometer Infinitive M1000 (Tecan, Groding, Austria). […]

[5] = tested on: AsPC-1, U87 and U251 cell lines; assay: MTT assay, overall activity on the three cell lines (in words); format: cell-based, human; conditions: 10–500 µM, all three cell lines
Method: as §2

U251 cells = assay: Detection of apoptotic and necrotic cells (annexin V/ethidium homodimer III staining); format: cell-based, human
Description: U251 cells were stained and observed by fluorescence microscope (Figure 4). If the cells are colored green with annexin V, and not stained red with ethidium homodimer III, the cells are judged to be apoptotic. […] The apoptotic and necrotic effects of compound 11 were compared with cisplatin. […] Then, apoptotic/necrotic/healthy cells detection kit protocol was applied according to the manufacturer’s instruction manual (PromoKine, Heidelberg, Germany). After the cells were washed twice with 1 × binding buffer, a staining solution containing 50 µL of 1 × binding buffer, 2 µL of FTIC-Annexin V solution, 2 µL of ethidium homodimer III solution and 2 µL of Hoechst 33342 solution was added and the cells were incubated for 15 min at RT, protected from light. Cells were washed with 1 × binding buffer and analyzed by all-in-one fluorescence microscope Biorevo Fluorescence BZ-9000 (Keyence, Osaka, Japan).

[6] = tested on: Jurkat human leukemic T-cells; assay: MTT cell viability, Jurkat cells (tumor selectivity); format: cell-based
Method: as §2

supercoiled pUC19 DNA = assay: DNA cleavage assay (agarose gel electrophoresis); format: biochemical; conditions: 37 °C, 1.5 h
Method: The DNA cleavage activities of compound 11 and cisplatin at the IC50 concentrations in water and Tris/boric acid buffer in the presence and absent of the iron complex, H2O2 and ascorbic acid as an activator were studied using supercoiled pUC19 DNA (Figure 5). The reaction mixture was incubated at 37 °C for 1.5 h and then agarose gel electrophoresis was performed at 100 V for 40 min. DNA was visualized by photographing the fluorescence of intercalated ethidium bromide under a UV illuminator. […] Thus, it is considered that DNA-cleavage was caused by oxygen activation.
The DNA cleavage activities of the compounds were studied using supercoiled pUC19 DNA and analyzed by agarose (Takara, Kyoto, Japan) gel electrophoresis Mupid-2x (Mupid, Tokyo, Japan). pUC19 DNA (2 µg) was treated with compounds in water and Tris/boric acid (Nacalai Tesque, Kyoto, Japan) buffer (10 mM, pH 8.5) in the presence and absence of iron (II) sulfate heptahydrate (FeSO4·7H2O; 30 µM) (Wako Pure Chemical Industries), hydrogen peroxide (H2O2; 30 µM) (Tokyo Chemical Industry Co., Tokyo, Japan) and ascorbic acid (30 µM) (Tokyo Chemical Industry Co.) as an activator. […] DNA was visualized by photographing the fluorescence of intercalated ethidium bromide under a UV illuminator (Nippon Genetics Co., Tokyo, Japan).

Compound | IC50 [1] | IC50 [2] | IC50 [3] | other results
1-[(1-(2-(Dimethylamino)ethyl)-1H-tetrazol-5-yl)thioacetyl]-3-(2-thienyl)-5-(4-chlorophenyl)-2-pyrazoline [Compound 5] | > 500 µM | > 500 µM | 216 ± 29.7 µM | 
1-[(1-(4-Hydroxyphenyl)-1H-tetrazol-5-yl)thioacetyl]-3-(2-thienyl)-5-(4-chlorophenyl)-2-pyrazoline [Compound 4] | > 500 µM | > 500 µM | 65 ± 5.4 µM | 
1-[(1-Methyl-1H-tetrazol-5-yl)thioacetyl]-3-(2-thienyl)-5-(4-chlorophenyl)-2-pyrazoline [Compound 2] | > 500 µM | > 500 µM | > 500 µM | 
1-[(1-Phenyl-1H-tetrazol-5-yl)thioacetyl]-3-(2-thienyl)-5-(4-chlorophenyl)-2-pyrazoline [Compound 3] | > 500 µM | > 500 µM | > 500 µM | 
1-[(5-(4-Chlorophenyl)-1,3,4-oxadiazol-2-yl)thioacetyl]-3-(2-thienyl)-5-(4-chlorophenyl)-2-pyrazoline [Compound 10] | 251 ± 30.4 µM |  |  | 
1-[(5-(4-Methoxyphenyl)-1,3,4-oxadiazol-2-yl)thioacetyl]-3-(2-thienyl)-5-(4-chlorophenyl)-2-pyrazoline [Compound 12] |  |  |  | cytotoxicity on U87 cell line (in words) [1]: no significant cytotoxicity
1-[(5-(4-Methylphenyl)-1,3,4-oxadiazol-2-yl)thioacetyl]-3-(2-thienyl)-5-(4-chlorophenyl)-2-pyrazoline [Compound 11] |  |  |  | IC50 [4]: ~1000 µM; cytotoxic activity (in words) [5]: good activity; apoptotic/necrotic effect (U251 cells; IC50 (11.9 µM, high concentration), 3 h): mainly induced necrosis; apoptotic/necrotic effect (U251 cells; IC50 concentration, 24 h): late stage apoptotic or necrotic effect; apoptotic/necrotic effect (U251 cells; low concentration (1.5 µM), 3 h): exhibited apoptotic phenotype; also recorded: induced apoptosis; also recorded: showed apoptotic activity; IC50 ([6]; MTT, Figure 3b, read-out: IC50 against Jurkat human leukemic T-cells): 90 µM; tumor selectivity in blood cells (PBMC vs Jurkat) ([6]; ratio of IC50 PBMC to IC50 Jurkat): more than 10 times; DNA-cleaving efficiency compared with cisplatin (supercoiled pUC19 DNA; IC50 concentrations, iron (II) complex system): more significant than cisplatin; also recorded: much greater than cisplatin; DNA cleavage efficiency with vs without FeSO4, H2O2 and ascorbic acid (supercoiled pUC19 DNA; pUC19 DNA, 30 µM each activator): clearly enhanced
1-[(5-(Pyridin-3-yl)-1,3,4-oxadiazol-2-yl)thioacetyl]-3-(2-thienyl)-5-(4-chlorophenyl)-2-pyrazoline [Compound 9] | > 500 µM | > 500 µM | 108 ± 30.1 µM | 
1-[(5-Methyl-1,3,4-thiadiazol-2-yl)thioacetyl]-3-(2-thienyl)-5-(4-chlorophenyl)-2-pyrazoline [Compound 6] | > 500 µM | > 500 µM | 199 ± 32.8 µM | 
1-[(5-Phenyl-1,3,4-oxadiazol-2-yl)thioacetyl]-3-(2-thienyl)-5-(4-chlorophenyl)-2-pyrazoline [Compound 8] | > 500 µM | 393 ± 60.4 µM | 139 ± 26.8 µM | 
1-[(Pyrimidin-2-yl)thioacetyl]-3-(2-thienyl)-5-(4-chlorophenyl)-2-pyrazoline [Compound 7] | > 500 µM | > 500 µM | 236 ± 36.4 µM | 
N.N.[Cl][Pt][Cl] [Cisplatin, reference compound] | 14.8 ± 1.4 µM | 4.9 ± 1 µM | 22.5 ± 2 µM | apoptotic/necrotic effect (U251 cells; IC50 concentration, 24 h): only apoptotic effects
